The record followed here is patent US20250049911A1, “I[…] FOR IMMUNOTHERAPEUTIC AND OTHER USES” (priority 2021, published 2025).

The test system of experiment [1] is primary human naïve CD8+ T cells. Type of experiment: cell-based.
A further experiment deals with murine CD8+ T cells. In words: IFN-γ expression and proliferation of murine CD8+ T cells. The class given is cell-based, mouse.
Another experiment concerns CoV2 RBD protein. Details: species or system SARS-CoV-2. To be noted: in vivo.

For the molecule 6-bromo-substituted indirubin [BIO], the “development of TMSCs” value in experiment [1] is listed as “promoted the development of TMSCs”. For the molecule `O=C1Cc2c([nH]c3ccc(Br)cc23)-c2ncccc2N1` [1-Azakenpaullone], in experiment [1], the “development of TMSCs” value is “promoted the development of TMSCs”. In the case of `CC(=O)O/N=C1/C(=C2/C(=O)Nc3cc(Br)ccc32)Nc2ccccc21` [BIO-acetoxime], the “development of TMSCs” value in experiment [1] is listed as “promoted the development of TMSCs”. Regarding `Nc1cccc(-c2cc3c(Oc4cccc(O)c4)ncnc3[nH]2)c1.O=C(O)C(F)(F)F.O=C(O)C(F)(F)F` [TWS119], the TMSC formation result in experiment [1] is “could not induce TMSC formation”. Besides, the IFN-γ expression result in the experiment with murine CD8+ T cells (4 days post treatment) was “inhibited”. Also, the T cell proliferation result with murine CD8+ T cells (CFSE proliferation staining) is recorded as “inhibited”.

As to IL-15, in experiment [1], the “TMSC expansion in culture” value was “significantly expanded TMSCs” and the TMSC formation entry is “only a moderate advantage”. For “Polyinosinic:polycytidylic acid [poly(I:C)]”, in the experiment with CoV2 RBD protein, the humoral response result is on record as “strong humoral response” and the “ratio of IgG2b to IgG1 titer” value is “balanced Th1/Th2 profile or Th2-dominant response”.

B1: IL-7 (protein, UniProt P13232 26-177, looked up)
Interleukin-7: DCDIEGKDGKQYESVLMVSIDQLLDSMKEIGSNCLNNEFNFFKRHICDANKEGMFLFRAARKLRQFLKMNSTGDFDLHLLKVSEGTTILLNCTGQVKGRKPAALGEAQPTKSLEENKSLKEQKKLNDLCFLKRLLQEIKTCWNKILMGTKEH
On to B1, for which, in experiment [1], the “TMSC expansion in culture” value is “significantly expanded TMSCs” and the TMSC formation result is recorded as “only a moderate advantage”.
